Data set [1] has as its system BK polyomavirus. The data set is described as follows: Antiviral activity against BKV Gardner ATCC VR837 infected in human WI38 cells assessed as reduction in viral DNA level preincubated for 2 hrs before viral infection measured after 7 days by real time PCR assay. It counts as functional, organism-based, Betapolyomavirus hominis, WI-38. On the technique in general: In qPCR the cycle at which signal appears reflects the starting amount.

Data set [2] in a line: Cytotoxicity against human WI38 cells assessed as reduction in cellular DNA level preincubated for 2 hrs before viral infection measured after 7 days by real time PCR assay. The format is cell-based, WI-38. As to conditions: for CC50 at 168 h: WI38 cells; call rule not given here.
A short description of data set [3]: Cytotoxicity against human WI38 cells assessed as reduction in cellular DNA level at 6.25 uM preincubated for 2 hrs before viral infection measured after 7 days by real time PCR assay. The following applies: wi-38, 168 h. It counts as cell-based.
A short description of data set [4]: Selectivity index, ratio of CC50 for human WI38 cells preincubated for 2 hrs before viral infection measured after 7 days by real time PCR assay to EC50 for BKV Gardner ATCC VR837. The following applies: for selectivity ratio at 168 h: WI38 cells, read-out: Ratio CC50/EC50. It counts as toxicity, cell-based, WI-38.
The nature of data set [5]: Cytotoxicity against human WI38 cells assessed as reduction in cellular DNA level after 7 days by real time PCR assay. The format is cell-based, WI-38.
Data set [6] in a line: Selectivity index, ratio of CC50 for human WI38 cells after 7 days by real time PCR assay to EC50 for BKV Gardner ATCC VR837. As to conditions: read-out: Ratio CC50/EC50. It counts as toxicity, cell-based, WI-38.
Data set [7] in a line: Selectivity index, ratio of CC50 for human WI38 cells by conventional neutral red assay to EC50 for BKV Gardner ATCC VR837. The format is toxicity, cell-based, WI-38. As to conditions: read-out: Ratio CC50/EC50.
The nature of data set [8]: Cytotoxicity against human WI38 cells by conventional neutral red assay. The format is cell-based, WI-38.
In data set [9] the test system is BK polyomavirus. Briefly: Antiviral activity against BKV Gardner ATCC VR837 infected in human WI38 cells assessed as reduction in viral DNA level after 7 days by real time PCR assay. It counts as functional, organism-based. As to conditions: Betapolyomavirus hominis, WI-38, 168 h.
Setting [10] is: Betapolyomavirus hominis, Gardner, WI-38.

As a reminder, the EC50 is the concentration at which the effect is half-maximal. As a reminder, the CC50 is the concentration giving 50% cytotoxicity. For `Cc1nc2n(c(=O)c1CCN1CCC(c3noc4cc(F)ccc34)CC1)CCCC2` [RISPERIDONE], the EC50 in the data set with BK polyomavirus [1] (setting [10]) was more than 25 µM. The CC50 at 168 h in data set [2] was found to be 25 µM.

As for `Cc1cc2c(s1)Nc1ccccc1N=C2N1CCN(C)CC1` [OLANZAPINE], the EC50 with BK polyomavirus [1] (setting [10]) is more than 100 µM. Also, the CC50 at 168 h in data set [2] was more than 100 µM.

As to `C[C@@H]1[C@H](O)[C@@H](C)/C=C/C=C/C=C/C=C/C=C/C=C/C=C/[C@H](O[C@@H]2O[C@H](C)[C@@H](O)[C@H](N)[C@@H]2O)C[C@@H]2O[C@](O)(C[C@@H](O)C[C@@H](O)[C@H](O)CC[C@@H](O)C[C@@H](O)CC(=O)O[C@H]1C)C[C@H](O)[C@H]2C(=O)O` [AMPHOTERICIN B], the EC50 in the data set on BK polyomavirus [1] (setting [10]) came to 1.67 µM. Also, the CC50 at 168 h in data set [2] came out at 4.99 µM. In addition, the outcome in data set [3] was Active. Besides, the selectivity ratio at 168 h in data set [4] was found to be 2.99.

`CO[C@H]1O[C@H](CO)[C@@H](O)[C@H](O)[C@@H]1O`: the EC50 in the data set on BK polyomavirus [1] (setting [10]) was more than 100 µM. Also, the CC50 at 168 h in data set [2] is more than 100 µM.

For the compound `CC(=O)OC[C@H]1OC[C@H](OC(C)=O)[C@@H](OC(C)=O)[C@@H]1OC(C)=O`, in the data set on BK polyomavirus [1] (setting [10]), the EC50 is more than 100 µM. In [2], the CC50 at 168 h is more than 100 µM.

For the compound NYSTATIN, in the data set on BK polyomavirus [1] (wi-38), the EC50 was found to be 9.81 µM. In addition, the cytotoxic concentration (CC50) in data set [2] (wi-38, 168 h) was found to be 48.6 µM. Moreover, in data set [4] (wi-38, 168 h), the “Ratio CC50/EC50” value is given as 5.13.

`O=C1OC([C@@H](O)CO)[C@H](O)[C@@H]1O` (some centres undefined): in the data set with BK polyomavirus [1] (setting [10]), the EC50 is more than 100 µM. In data set [2], the CC50 at 168 h is more than 100 µM.

In the case of `COc1cc2c(c(OC)c1OC)-c1ccc(OC)c(=O)cc1[C@@H](NC(C)=O)CC2` [COLCHICINE], in the data set on BK polyomavirus [1] (setting [10]), the EC50 worked out at 0.022 µM. For the same compound, in [2], the CC50 at 168 h was found to be 0.0476 µM. Moreover, the selectivity ratio at 168 h in data set [4] was 3.63.

Regarding `CCN(CC)CCCC(C)Nc1ccnc2cc(Cl)ccc12` (centres undefined) [CHLOROQUINE], the EC50 with BK polyomavirus [1] (setting [10]) is 1.7 µM. Besides, in data set [2], the CC50 at 168 h was 8.5 µM. The selectivity ratio at 168 h in data set [4] was found to be 5.32.

For `CCCCCCCCO[C@@H]1O[C@H](CO)[C@@H](O)[C@H](O)[C@H]1O`, the EC50 in the data set with BK polyomavirus [1] (setting [10]) was more than 100 µM. Moreover, the CC50 at 168 h in data set [2] is more than 100 µM.

As to `CC(=O)OC[C@H]1OC[C@H](OC(C)=O)[C@@H](OC(C)=O)[C@H]1OC(C)=O`, the EC50 in the data set on BK polyomavirus [1] (setting [10]) was more than 100 µM. The CC50 at 168 h in data set [2] was more than 100 µM.

Regarding `COC(=O)[C@H]1O[C@@H](O)[C@H](O)[C@@H](O)[C@H]1O`, in the data set with BK polyomavirus [1] (setting [10]), the EC50 is more than 100 µM. Further, the CC50 at 168 h in [2] was more than 100 µM.

As for `CCCCCCCCCO[C@@H]1O[C@H](CO)[C@@H](O)[C@H](O)[C@H]1O`, the CC50 at 168 h in [5] came out at 114 µM; in [2], 78.3 µM. Further, the values for the EC50 in the data set with BK polyomavirus [1] (setting [10]) and in the data set on BK polyomavirus [9] were 6.35 µM and 98.3 µM, respectively. Moreover, the values for the selectivity ratio at 168 h in [6] and in [4] were 1.25 and 16, respectively. Also, the selectivity ratio in data set [7] was 30.5. Besides, in [8], the CC50 turned out to be 126 µM.

Consider `O=C1Cc2cc(CCN3CCN(c4nsc5ccccc45)CC3)c(Cl)cc2N1` [ZIPRASIDONE], for which, in the data set on BK polyomavirus [1] (setting [10]), the EC50 is more than 100 µM. For the same compound, the CC50 at 168 h in data set [2] was more than 100 µM.

As for `CN(C)CCCN1c2ccccc2Sc2ccc(Cl)cc21` [CHLORPROMAZINE], the EC50 with BK polyomavirus [1] (setting [10]) is 7.6 µM. Further, the CC50 at 168 h in data set [2] came out at 10.3 µM. In data set [4], the selectivity ratio at 168 h was 1.98.

Consider `CN1CCN(C2=Nc3cc(Cl)ccc3Nc3ccccc32)CC1` [CLOZAPINE], for which the EC50 with BK polyomavirus [1] (setting [10]) was 23.3 µM. Further, the CC50 at 168 h in [2] came to 40 µM. Also, the selectivity ratio at 168 h in [4] came to 4.9.

For the compound `COC(=O)[C@H]1O[C@@H](OC(C)=O)[C@H](OC(C)=O)[C@@H](OC(C)=O)[C@@H]1OC(C)=O`, the EC50 in the data set on BK polyomavirus [1] (setting [10]) was more than 100 µM. For the same compound, the CC50 at 168 h in data set [2] was more than 100 µM.

For the compound `O=C(O)[C@H]1OC(O)[C@H](O)[C@@H](O)[C@@H]1O` (some centres undefined), the concentration giving a half-maximal response (EC50) with BK polyomavirus [1] (setting [10]) was more than 100 µM. In [2], the CC50 at 168 h is more than 100 µM.

Source of the values: ChEMBL document CHEMBL1137669, “BK Virus replication in vitro: limited effect of drugs interfering with viral uptake and intracellular transport” (Antimicrob Agents Chemother, 2007).
